Assay results reported in patent US6794379B2, “CXCR3 antagonists” (Tularik Inc., priority 2001, dated 2004).
Where a name gives a salt, the structure may show the parent alone. Each block holds one molecule with its values, some of them ahead of it.

Structure (SMILES): CC(c1nc2ccccc2c(=O)n1-c1ccc(F)cc1)N(CCN(C)C)C(=O)Cc1ccccc1 (stereo not drawn)
melting point: 153 °C

Structure (SMILES): Cc1ccc(CC(=O)N(CCN(C)C)C(C)c2nc3ccccc3c(=O)n2-c2ccc(F)cc2)cc1 (stereo not drawn)
melting point: 188.3 °C

Structure (SMILES): CCOCCN(C(=O)Cc1ccc(-c2ccccc2)cc1)C(C)c1nc2ccccc2c(=O)n1-c1ccc(OCC)cc1 (stereo not drawn)
melting point: 98.1 °C

Structure (SMILES): C[C@H](c1nc2ccccc2c(=O)n1-c1ccc(F)cc1)N(Cc1nccs1)C(=O)Cc1ccc(C(F)(F)F)cc1
melting point: 173 to 174 °C

Structure (SMILES): CC(c1nc2ccccc2c(=O)n1-c1ccc(F)cc1)N(Cc1cccnc1)C(=O)Cc1ccc(C(F)(F)F)cc1 (racemic)
melting point: 167 °C

Structure (SMILES): CC(c1nc2ccccc2c(=O)n1-c1ccc(F)cc1)N(CCN(C)C)C(=O)c1ccc(-c2ccccc2)cc1 (stereo not drawn) [Compound 1.06]
melting point: 147.3 °C

Structure (SMILES): COCCN(C(=O)Cc1ccc(-c2ccccc2)cc1)C(C)c1nc2ccccc2c(=O)n1-c1ccc(F)cc1 (stereo not drawn) [Compound 1.17]
melting point: 153.8 °C

Structure (SMILES): CCOCCN(C(=O)Cc1ccc(-c2ccccc2)cc1)C(C)c1nc2ccccc2c(=O)n1-c1ccc(F)cc1 (stereo not drawn) [Compound 1.19]
melting point: 150.6 °C

Structure (SMILES): COc1ccc(-n2c(C(C)N(CCN3CCCC3)C(=O)Cc3ccc(-c4ccccc4)cc3)nc3ccccc3c2=O)cc1F (stereo not drawn) [Compound 1.33]
melting point: 96.9 °C

Structure (SMILES): COc1ccc(-n2c(C(C)N(CCN3CCCC3)C(=O)Cc3ccc(-c4ccccc4)cc3)nc3ccccc3c2=O)cc1 (stereo not drawn) [Compound 1.34]
melting point: 116.3 °C

Structure (SMILES): COc1ccc(-n2c(C(C)N(CCN(C)C)C(=O)Cc3ccc(OCc4ccccc4)cc3)nc3ccccc3c2=O)cc1 (stereo not drawn) [Compound 1.36]
melting point: 61.3 °C

Now from value to molecule:

melting point: 167.5 °C
Structure (SMILES): CCOc1ccc(-n2c(C(C)N(Cc3ccccn3)C(=O)Cc3ccc(C(F)(F)F)cc3)nc3ccccc3c2=O)cc1 (stereo not drawn) (as salt: hydrochloride) [Compound 3.04, 2-((N-2-Picolyl)-N-(4-trifluoromethylphenylacetyl)-1-aminoethyl)-3-(4-ethoxyphenyl) -3H-quinazoline-4-one]

melting point: 73.3 °C
Structure (SMILES): C#Cc1ccc(-n2c(C(C)N(CCOC)C(=O)Cc3ccc(-c4ccccc4)cc3)nc3ccccc3c2=O)cc1 (stereo not drawn) [Compound 3.12, 2-((N-2-Methoxyethyl)-N-(4-phenylphenylacetyl)-1-aminoethyl)-3-(4-ethynylphenyl) -3H-quinazoline-4-one]

melting point: 220 to 221 °C
Structure (SMILES): CC(=O)CN(C(=O)Cc1ccc(C(F)(F)F)cc1)[C@H](C)c1nc2ccccc2c(=O)n1-c1ccc(F)cc1 [Compound 3.22]

melting point: 57 to 60 °C
Structure (SMILES): CCOCCN(C(=O)Cc1cc(C(F)(F)F)cc(C(F)(F)F)c1)[C@H](C)c1nc2ccccc2c(=O)n1-c1ccc(OCC)cc1 [Compound 3.25]

melting point: 137 to 138 °C
Structure (SMILES): CCOCCN(C(=O)Cc1ccc(F)c(C(F)(F)F)c1)[C@H](C)c1nc2ccccc2c(=O)n1-c1ccc(OCC)cc1 [Compound 3.26]

melting point: 146 to 148 °C
Structure (SMILES): CCOCCN(C(=O)Cc1ccc(C(F)(F)F)c(F)c1)[C@H](C)c1nc2ccccc2c(=O)n1-c1ccc(OCC)cc1 [Compound 3.27]

melting point: 103 to 104 °C
Structure (SMILES): CCOc1ccc(-n2c([C@@H](C)N(Cc3cccnc3)C(=O)Cc3ccc(OCC(F)(F)F)cc3)nc3ccccc3c2=O)cc1 [Compound 3.28]

melting point: 153 °C
Structure (SMILES): CCOCCN(C(=O)Cc1ccc(OC(F)(F)F)cc1)C(C)c1nc2ccccc2c(=O)n1-c1ccc(OCC)cc1 (stereo not drawn) [Compound 3.30]

melting point: 146.3 °C
Structure (SMILES): CCOCCN(C(=O)Cc1ccc(F)c(F)c1F)C(C)c1nc2ccccc2c(=O)n1-c1ccc(OCC)cc1 (stereo not drawn) [Compound 3.32]

melting point: 75.5 °C
Structure (SMILES): CCOc1ccc(-n2c(C(C)N(Cc3cccnc3)C(=O)Cc3ccc(F)c(F)c3)nc3ccccc3c2=O)cc1 (stereo not drawn) [Compound 3.34]

melting point: 167.9 °C
Structure (SMILES): C[C@H](c1nc2ccccc2c(=O)n1-c1ccc(F)cc1)N(CCOCC(F)(F)F)C(=O)Cc1ccc(-c2ccccc2)cc1 [Compound 9.03]

melting point: 156.2 °C
Structure (SMILES): C[C@H](c1nc2ccccc2c(=O)n1-c1ccc(F)cc1)N(CCOCC(F)(F)F)C(=O)Cc1ccc(C(F)(F)F)cc1 [Compound 9.04]

melting point: 157.9 °C
Structure (SMILES): CCOCCN(C(=O)Cc1cccc(C(F)(F)F)c1)C(C)c1nc2ccccc2c(=O)n1-c1ccc(OCC)cc1 (stereo not drawn) [Compound 9.08]
